The molecules below were run against T1, Human Factor D (Homo sapiens, UniProt P00746) (assay: Human Factor D Assay). Settings: not given.
T1 construct: purified from human serum; purchased Complement Technology, Inc; host or cells: human serum (natural protein, not recombinant)
T1 sequence (P00746 26-253): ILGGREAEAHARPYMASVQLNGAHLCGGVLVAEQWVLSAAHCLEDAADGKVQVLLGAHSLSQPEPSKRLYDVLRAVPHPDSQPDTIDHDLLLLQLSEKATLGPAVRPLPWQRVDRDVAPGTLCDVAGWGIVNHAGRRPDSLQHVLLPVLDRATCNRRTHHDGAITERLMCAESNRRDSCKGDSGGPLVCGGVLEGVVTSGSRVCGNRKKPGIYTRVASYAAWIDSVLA
Type: biochemical
Method: Human Factor D (purified from human serum, Complement Technology, Inc.) at 80 nM final concentration is incubated with test compound at various concentrations for 5 min at room temperature in 50 mM Tris, 1M NaCl, pH 7.5. A synthetic substrate Z-L-Lys-SBzl and DTNB (Ellman's reagent) are added to final concentrations of 100 μM each. […] IC50 values are calculated by nonlinear regression of complement Factor D reaction rates as a function of test compound concentration.
Molecule `CC(=O)c1nn(CC(=O)N2[C@H](C(=O)Nc3nc(Br)ccc3C)C[C@@]3(CNC(=O)COCCOCCNC(=O)COCCOCCNC(=O)CC[C@H](NC(=O)CCCCCCCCCCCCCCCCC(=O)O)C(=O)O)C[C@@H]23)c2ccc(OC(=O)NC3CC3)cc12` [Compound 15, (S)-1-((1R,3S,5R)-2-(2-(3-acetyl-5-((cyclopropylcarbamoyl)oxy)-1H-indazol-1-yl)acetyl)-3-((6-bromo-3-methylpyridin-2-yl)carbamoyl)-2-azabicyclo[3.1.0]hexan-5-yl)-24-carboxy-3,12,21,26-tetraoxo-5,8,14,17-tetraoxa-2,11,20,25-tetraazatritetracontan-43-oic acid] has an IC50 of less than 1 µM.

Same assay, conditions: Human Factor D 80 nM, substrate Z-L-Lys-SBzl, assay of Example 3; read-out: IC50 (Stars)
`CC(=O)c1nn(CC(=O)N2[C@H](C(=O)NCCc3ccccc3F)C[C@@]3(C)C[C@@H]23)c2c(C)cc(-c3cnc(C)nc3)cc12` [Compound 1, (1R,3S,5R)-2-(2-(3-Acetyl-7-methyl-5-(2-methylpyrimidin-5-yl)-1H-indazol-1-yl)acetyl)-N-(2-fluorophenethyl)-5-methyl-2-azabicyclo[3.1.0]hexane-3-carboxamide] was tested, and the IC50 was less than 1 µM. In the case of `CC(=O)c1nn(CC(=O)N2[C@H](C(=O)NCCc3ccc(F)cc3)C[C@@]3(C)C[C@@H]23)c2c(C)cc(-c3cnc(C)nc3)cc12` [Compound 2, (1R,3S,5R)-2-(2-(3-Acetyl-7-methyl-5-(2-methylpyrimidin-5-yl)-1H-indazol-1-yl)acetyl)-N-(4-fluorophenethyl)-5-methyl-2-azabicyclo[3.1.0]hexane-3-carboxamide], the IC50 is reported as less than 1 µM. With `CC(=O)c1nn(CC(=O)N2[C@H](C(=O)NCCc3ccccc3Cl)C[C@@]3(C)C[C@@H]23)c2c(C)cc(-c3cnc(C)nc3)cc12` [Compound 3, (1R,3S,5R)-2-(2-(3-Acetyl-7-methyl-5-(2-methylpyrimidin-5-yl)-1H-indazol-1-yl)acetyl)-N-(2-chlorophenethyl)-5-methyl-2-azabicyclo[3.1.0]hexane-3-carboxamide] the IC50 was less than 1 µM. `CC(=O)c1nn(CC(=O)N2[C@H](C(=O)NCCc3cc(Cl)ccc3Cl)C[C@@]3(C)C[C@@H]23)c2c(C)cc(-c3cnc(C)nc3)cc12` [Compound 4, (1R,3S,5R)-2-(2-(3-Acetyl-7-methyl-5-(2-methylpyrimidin-5-yl)-1H-indazol-1-yl)acetyl)-N-(2,5-dichlorophenethyl)-5-methyl-2-azabicyclo[3.1.0]hexane-3-carboxamide] gave an IC50 of less than 1 µM. `CC(=O)c1nn(CC(=O)N2[C@H](C(=O)NCCc3ccc(Cl)cc3Cl)C[C@@]3(C)C[C@@H]23)c2c(C)cc(-c3cnc(C)nc3)cc12` [Compound 5, (1R,3S,5R)-2-(2-(3-Acetyl-7-methyl-5-(2-methylpyrimidin-5-yl)-1H-indazol-1-yl)acetyl)-N-(2,4-dichlorophenethyl)-5-methyl-2-azabicyclo[3.1.0]hexane-3-carboxamide] was tested, and the IC50 was less than 1 µM. `CC(=O)c1nn(CC(=O)N2[C@H](C(=O)NCCc3ccccn3)C[C@@]3(C)C[C@@H]23)c2c(C)cc(-c3cnc(C)nc3)cc12` [Compound 6, (1R,3S,5R)-2-(2-(3-Acetyl-7-methyl-5-(2-methylpyrimidin-5-yl)-1H-indazol-1-yl)acetyl)-5-methyl-N-(2-(pyridin-2-yl)ethyl)-2-azabicyclo[3.1.0]hexane-3-carboxamide] was tested, and the IC50 was less than 1 µM. Molecule `CC(=O)c1nn(CC(=O)N2[C@H](C(=O)NCCc3cccnc3)C[C@@]3(C)C[C@@H]23)c2c(C)cc(-c3cnc(C)nc3)cc12` [Compound 7, (1R,3S,5R)-2-(2-(3-Acetyl-7-methyl-5-(2-methylpyrimidin-5-yl)-1H-indazol-1-yl)acetyl)-5-methyl-N-(2-(pyridin-3-yl)ethyl)-2-azabicyclo[3.1.0]hexane-3-carboxamide] has an IC50 of less than 1 µM. In the case of `CC(=O)c1nn(CC(=O)N2[C@H](C(=O)NCCc3ccncc3)C[C@@]3(C)C[C@@H]23)c2c(C)cc(-c3cnc(C)nc3)cc12` [Compound 8, (1R,3S,5R)-2-(2-(3-Acetyl-7-methyl-5-(2-methylpyrimidin-5-yl)-1H-indazol-1-yl)acetyl)-5-methyl-N-(2-(pyridin-4-yl)ethyl)-2-azabicyclo[3.1.0]hexane-3-carboxamide], the IC50 is reported as 1 to 10 µM. `CONC(=O)c1nn(CC(=O)N2[C@H](C(=O)Nc3nc(Br)ccc3C)C[C@@]3(C)C[C@@H]23)c2ccc(-c3cnc(C)nc3)cc12` [Compound 9, 1-(2-((1R,3S,5R)-3-((6-Bromo-3-methylpyridin-2-yl)carbamoyl)-5-methyl-2-azabicyclo[3.1.0]hexan-2-yl)-2-oxoethyl)-N-methoxy-5-(2-methylpyrimidin-5-yl)-1H-indazole-3-carboxamide] gave an IC50 of less than 1 µM. `CC(=O)c1nn(CC(=O)N2[C@H](C(=O)N[C@@H](C)CC(C)C)C[C@@]3(C)C[C@@H]23)c2ccc(-c3cnc(C)nc3)cc12` [Compound 10, (1R,3S,5R)-2-(2-(3-Acetyl-5-(2-methylpyrimidin-5-yl)-1H-indazol-1-yl)acetyl)-5-methyl-N—((S)-4-methylpentan-2-yl)-2-azabicyclo[3.1.0]hexane-3-carboxamide] was tested, and the IC50 was less than 1 µM. Work on `CC[C@@H](C)NC(=O)[C@@H]1C[C@@]2(C)C[C@H]2N1C(=O)Cn1nc(C(C)=O)c2cc(-c3cnc(C)nc3)ccc21` [Compound 11, (1R,3S,5R)-2-(2-(3-Acetyl-5-(2-methylpyrimidin-5-yl)-1H-indazol-1-yl)acetyl)-N—((R)-sec-butyl)-5-methyl-2-azabicyclo[3.1.0]hexane-3-carboxamide] yielded an IC50 of less than 1 µM. `CC(=O)c1nn(CC(=O)N2[C@H](C(=O)N[C@@H](C)CCc3ccccc3)C[C@@]3(C)C[C@@H]23)c2ccc(-c3cnc(C)nc3)cc12` [Compound 12, (1R,3S,5R)-2-(2-(3-Acetyl-5-(2-methylpyrimidin-5-yl)-1H-indazol-1-yl)acetyl)-5-methyl-N—((S)-4-phenylbutan-2-yl)-2-azabicyclo[3.1.0]hexane-3-carboxamide] was tested, and the IC50 was less than 1 µM. For `CC(=O)c1nn(CC(=O)N2[C@H](C(=O)N[C@H](C)CCc3ccccc3)C[C@@]3(C)C[C@@H]23)c2ccc(-c3cnc(C)nc3)cc12` [Compound 13, (1R,3S,5R)-2-(2-(3-Acetyl-5-(2-methylpyrimidin-5-yl)-1H-indazol-1-yl)acetyl)-5-methyl-N—((R)-4-phenylbutan-2-yl)-2-azabicyclo[3.1.0]hexane-3-carboxamide], the IC50 was less than 1 µM. `CC(=O)c1nn(CC(=O)N2[C@H](C(=O)N[C@H](C)C(C)C)C[C@@]3(C)C[C@@H]23)c2ccc(-c3cnc(C)nc3)cc12` [Compound 14, (1R,3S,5R)-2-(2-(3-Acetyl-5-(2-methylpyrimidin-5-yl)-1H-indazol-1-yl)acetyl)-5-methyl-N—((R)-3-methylbutan-2-yl)-2-azabicyclo[3.1.0]hexane-3-carboxamide] showed an IC50 of less than 1 µM. `CCC[C@@H](C)NC(=O)[C@@H]1C[C@@]2(C)C[C@H]2N1C(=O)Cn1nc(C(C)=O)c2cc(-c3cnc(C)nc3)ccc21` [Compound 16, (1R,3S,5R)-2-(2-(3-Acetyl-5-(2-methylpyrimidin-5-yl)-1H-indazol-1-yl)acetyl)-5-methyl-N—((R)-pentan-2-yl)-2-azabicyclo[3.1.0]hexane-3-carboxamide] was tested, and the IC50 was less than 1 µM. With `CCCCC[C@@H](C)NC(=O)[C@@H]1C[C@@]2(C)C[C@H]2N1C(=O)Cn1nc(C(C)=O)c2cc(-c3cnc(C)nc3)ccc21` [Compound 17, (1R,3S,5R)-2-(2-(3-Acetyl-5-(2-methylpyrimidin-5-yl)-1H-indazol-1-yl)acetyl)-N—((R)-heptan-2-yl)-5-methyl-2-azabicyclo[3.1.0]hexane-3-carboxamide] the IC50 was less than 1 µM. For `CC(=O)c1nn(CC(=O)N2[C@H](C(=O)N[C@H](C)CC(C)C)C[C@@]3(C)C[C@@H]23)c2ccc(-c3cnc(C)nc3)cc12` [Compound 18, (1R,3S,5R)-2-(2-(3-Acetyl-5-(2-methylpyrimidin-5-yl)-1H-indazol-1-yl)acetyl)-5-methyl-N—((R)-4-methylpentan-2-yl)-2-azabicyclo[3.1.0]hexane-3-carboxamide], the IC50 was less than 1 µM. Molecule `CC(=O)c1nn(CC(=O)N2[C@H](C(=O)Nc3cccc(Br)n3)C[C@@]3(C)C[C@@H]23)c2c3c(c(-c4cnc(C)nc4)cc12)CCCO3` [Compound 19, (1R,3S,5R)-2-(2-(3-acetyl-5-(2-methylpyrimidin-5-yl)-7,8-dihydropyran[3,2-g]indazol-1(6H)-yl)acetyl)-N-(6-bromopyridin-2-yl)-5-methyl-2-azabicyclo[3.1.0] hexane-3-carboxamide] has an IC50 of less than 1 µM. With `CC(=O)c1nn(CC(=O)N2[C@H](C(=O)Nc3nc(Br)ccc3C)C[C@@]3(C)C[C@@H]23)c2c3c(c(-c4cnc(C)nc4)cc12)CCCO3` [Compound 20] the IC50 was less than 1 µM.

Same assay, conditions: Human Factor D 80 nM, substrate Z-L-Lys-SBzl; Table 2; read-out: IC50 (Stars)
In the case of `CC(=O)c1nn(CC(=O)N2[C@H](C(=O)N[C@H]3CCCCC34OCCO4)C[C@@]3(C)C[C@@H]23)c2c(C)cc(-c3cnc(C)nc3)cc12` (single isomer, unassigned) [Compound 135], the IC50 is reported as 1 to 10 µM. For `CC(=O)c1nn(CC(=O)N2[C@H](C(=O)N[C@@H]3CCCCC34OCCO4)C[C@@]3(C)C[C@@H]23)c2c(C)cc(-c3cnc(C)nc3)cc12` (single isomer, unassigned) [Compound 136], the IC50 was less than 1 µM. For `CC(=O)c1nn(CC(=O)N2[C@H](C(=O)Nc3nc(Br)ccc3C)C[C@@]3(C)C[C@@H]23)c2c(C)cc(-c3cnc([C@H](C)O)nc3)cc12` (single isomer, unassigned) [Compound 141], the IC50 was less than 1 µM. For `CC(=O)c1nn(CC(=O)N2[C@H](C(=O)Nc3nc(Br)ccc3C)C[C@@]3(C)C[C@@H]23)c2c(C)cc(-c3cnc([C@@H](C)O)nc3)cc12` (single isomer, unassigned) [Compound 142], the IC50 was less than 1 µM.

From patent publication US20230022157A1 (Achillion Pharmaceuticals, Inc., priority 2018, published 2023)
